These results are taken from patent publication US11964973B2 (priority 2019, dated 2024).

Experiment [1] has as its target DGKα (Homo sapiens (Human), UniProt P23743). The experiment in a line: biochemical. The following applies: liposome (LIPGLO) assay; read-out: DGKα LIPGLO IC50. Type of experiment: biochemical.
Experiment [2] has as its target human DGKζ (Homo sapiens (Human), UniProt Q13574). The experiment in a line: biochemical. It is filed as biochemical. The following applies: read-out: DGKζ LIPGLO IC50.
For experiment [3], the system named is naïve human CD8 T cells. The experiment in a line: CellTiter-Glo CD8 T cell proliferation assay. Type of experiment: cell-based. The following applies: read-out: CD8 GLO Normalized EC50. On the procedure: Assay 4: CellTiter-Glo CD8 T Cell Proliferation Assay
Frozen naïve human CD8 T cells were thawed in RPMI+10% FBS, incubated for 2 h in 37° C., and counted. The 384-well tissue culture plate was coated overnight at 4° C. with 20 μl anti-human CD3 at 0.1 μg/mL in plain RPMI, which was removed off the plate before 20 k/40 μL CD8 T cells with 0.5 μg/ml soluble anti-human CD28 were added to each well. The compounds were echoed to the cell plate immediately after the cells were plated. After 72 h incubation at 37° C. incubator, 10 μL CellTiter-glo reagent (Promega catalog number G7570) was added to each well. The plate was vigorously shaken for 5 mins, incubated at room temperature for another 15 mins and read on Envision for CD8 T cell proliferation. In analysis, 0.1 μg/mL anti-CD3 and 0.5 μg/mL anti-CD28 stimulated CD8 T cell signal was background.

For experiment [4], the system named is OT-1 CD8+ T cells with SIINFEKL-loaded MC38 tumor cells. Briefly: Murine cytotoxic T lymphocyte assay (IFN-γ). Type of experiment: cell-based, mouse. The following applies: murine cytotoxic T lymphocyte, IFN-γ, read-out: msCTL INFg IC50. The text has this:
Assay 6: Murine Cytotoxic T Lymphocyte Assay
An antigen-specific cytolytic T-cell (CTL) assay was developed to evaluate functionally the ability of DGKα and DGKζ inhibitors to enhance effector T cell mediated tumor cell killing activity. CD8+ T-cells isolated from the OT-1 transgenic mouse recognize antigen presenting cells, MC38, that present the ovalbumin derived peptide […]. Recognition of the cognate antigen initiates the cytolytic activity of the OT-1 antigen-specific CD8+ T cells.
Functional CTL cells were generated as follows: OT-1 splenocytes from 8-12 week old mice were isolated and expanded in the presence of the […] peptide at 1 μg/mL and mIL2 at 10 U/mL. After three days, fresh media with […] was added. On day 5 of the expansion, the CD8+ T cells were isolated and ready for use. Activated CTL cells may be stored frozen for 6 months. Separately, one million MC38 tumor cells were pulsed with 1 μg/mL of […]-OVA peptide for 3 hours at 37° C. The cells were washed (3×) with fresh media to remove excess peptide. Finally, CTL cells that were pretreated with DGK inhibitors for 1 hour in a 96-well U bottom plate were combined with the antigen loaded MC38 tumor cells at a 1:10 ratio. The cells were then spun at 700 rpm for 5 min and placed in an incubator overnight at 37° C. After 24 hours, the supernatant was collected for analysis of IFN-γ cytokine levels by AlphaLisa purchased from Perkin Elmer.

Experiment [5] relates to Human venous whole blood (IFN-γ). Briefly: Human whole blood IFN-γ assay. It is filed as cell-based. The following applies: Homo sapiens, 24 h, human whole blood, anti-CD3 plus anti-CD28, 24 hours; read-out: INFg Whole Blood Normalized Agonist EC50. How it is done:
Assay 10: Human Whole Blood IFN-γ Assay
Human venous whole blood (22.5 μL per well), obtained from healthy donors, was pre-treated with compounds for one hour at 37° C. in a humidified 95% air/5% CO2 incubator. The blood was stimulated with 2.5 μL anti-human CD3 and anti-CD28 mAb at a final concentration of 1 μg/mL each for 24 hours at 37° C. IFN-γ in the supernatants was measured using AlphLISA kit (Cat #AL217).

SMILES strings stand for the structures. Like-named read-outs stand apart in the source and are kept apart here.

In general, IC50 refers to the concentration needed to halve the response being measured. What is called EC50 is the concentration that produces a half-maximal response.

Sequence of human DGKζ (Q13574 whole entry, looked up): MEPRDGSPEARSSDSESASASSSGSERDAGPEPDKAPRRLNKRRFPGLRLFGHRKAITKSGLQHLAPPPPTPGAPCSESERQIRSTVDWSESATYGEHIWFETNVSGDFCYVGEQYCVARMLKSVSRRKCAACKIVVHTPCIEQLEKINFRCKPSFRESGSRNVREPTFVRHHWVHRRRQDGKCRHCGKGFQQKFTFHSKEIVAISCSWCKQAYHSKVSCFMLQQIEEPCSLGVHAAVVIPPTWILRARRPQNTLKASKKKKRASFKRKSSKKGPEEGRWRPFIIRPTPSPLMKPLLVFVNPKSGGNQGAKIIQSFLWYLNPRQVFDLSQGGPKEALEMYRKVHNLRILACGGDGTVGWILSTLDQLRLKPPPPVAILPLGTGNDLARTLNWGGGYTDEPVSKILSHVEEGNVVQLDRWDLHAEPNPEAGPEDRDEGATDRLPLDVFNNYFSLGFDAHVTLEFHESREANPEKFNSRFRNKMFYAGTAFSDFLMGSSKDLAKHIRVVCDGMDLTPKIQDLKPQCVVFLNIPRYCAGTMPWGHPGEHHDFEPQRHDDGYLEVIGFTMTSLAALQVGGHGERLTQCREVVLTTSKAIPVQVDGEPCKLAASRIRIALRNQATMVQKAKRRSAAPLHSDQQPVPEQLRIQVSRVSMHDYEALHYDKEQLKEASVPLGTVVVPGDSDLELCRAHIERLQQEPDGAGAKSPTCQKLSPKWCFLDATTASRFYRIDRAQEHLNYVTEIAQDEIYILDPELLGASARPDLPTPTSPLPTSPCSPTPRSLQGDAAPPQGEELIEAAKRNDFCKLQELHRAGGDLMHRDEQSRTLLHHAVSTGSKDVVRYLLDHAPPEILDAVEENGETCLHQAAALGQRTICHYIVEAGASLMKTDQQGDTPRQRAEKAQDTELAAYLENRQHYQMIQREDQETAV
Sequence of DGKα (P23743 whole entry, looked up): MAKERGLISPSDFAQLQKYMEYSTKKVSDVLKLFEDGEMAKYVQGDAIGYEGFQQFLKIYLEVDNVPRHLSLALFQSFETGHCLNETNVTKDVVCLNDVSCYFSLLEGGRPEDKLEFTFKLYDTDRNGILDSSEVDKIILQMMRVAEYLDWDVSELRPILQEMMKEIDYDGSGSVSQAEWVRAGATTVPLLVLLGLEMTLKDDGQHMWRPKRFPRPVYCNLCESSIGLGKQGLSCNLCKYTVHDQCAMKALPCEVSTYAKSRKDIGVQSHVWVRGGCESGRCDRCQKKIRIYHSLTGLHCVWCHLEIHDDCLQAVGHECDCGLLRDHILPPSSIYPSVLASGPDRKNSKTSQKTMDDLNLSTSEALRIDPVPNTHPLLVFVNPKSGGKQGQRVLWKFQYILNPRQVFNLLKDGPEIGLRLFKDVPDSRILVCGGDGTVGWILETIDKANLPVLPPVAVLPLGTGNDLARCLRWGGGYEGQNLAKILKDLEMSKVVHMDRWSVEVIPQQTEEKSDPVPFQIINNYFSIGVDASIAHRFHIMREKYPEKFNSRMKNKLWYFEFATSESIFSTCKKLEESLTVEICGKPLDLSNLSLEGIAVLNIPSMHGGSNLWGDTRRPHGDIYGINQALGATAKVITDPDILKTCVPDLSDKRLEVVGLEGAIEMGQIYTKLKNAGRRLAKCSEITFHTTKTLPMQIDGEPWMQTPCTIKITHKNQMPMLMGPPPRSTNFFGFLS

In the case of `Cc1cc(F)cc(OC2CCN(c3c([N+](=O)[O-])c(=O)n(C)c4ccc(F)cc34)CC2)c1` [Example 1, 6-fluoro-4-(4-(3-fluoro-5-methylphenoxy)piperidin-1-yl)-1-methyl-3-nitroquinolin-2(1H)-one], the IC50 in experiment [1] worked out at 0.24 µM; in experiment [2] (liposome (LIPGLO) assay), 100 µM; in experiment [4] (Mus musculus, MC-38), 5.2 µM. Further, the figures for the EC50 in experiment [3] (Homo sapiens) and in experiment [5] were 1.6 µM and 10 µM, respectively.
The like results for `Cn1c(=O)c([N+](=O)[O-])c(N2CCC(Oc3ccc(OC(F)(F)F)cc3)CC2)c2cc(F)ccc21` [Example 3, 6-fluoro-1-methyl-3-nitro-4-(4-(4-(trifluoromethoxy)phenoxy)piperidin-1-yl)quinolin-2(1H)-one] were, in that order, 0.11 µM, 240 µM, 1.5 µM, 0.49 µM and 10 µM.
For the compound `COc1cccc(OC2CCN(c3c(C#N)c(=O)n(C)c4ccc(Cl)nc34)CC2)c1` [Example 10, 6-chloro-4-(4-(3-methoxyphenoxy)piperidin-1-yl)-1-methyl-2-oxo-1,2-dihydro-1,5-naphthyridine-3-carbonitrile], the IC50 in experiment [1] came to 0.15 µM; in experiment [2] (liposome (LIPGLO) assay), 2.8 µM; in experiment [4] (Mus musculus, MC-38), 4.5 µM. Besides, the results for the EC50 in experiment [3] (Homo sapiens) and in experiment [5] were 0.14 µM and 5 µM, respectively.
For `Cn1c(=O)c(C#N)c(N2CCC(Oc3ccccc3C(F)(F)F)CC2)c2nc(Cl)ccc21` [Example 11, 6-chloro-1-methyl-2-oxo-4-(4-(2-(trifluoromethyl)phenoxy)piperidin-1-yl)-1,2-dihydro-1,5-naphthyridine-3-carbonitrile], in that order: 12 µM, 150 µM, 0.83 µM, 10 µM and 10 µM.
On to `Cc1cc(OC(F)(F)F)ccc1OC1CCN(c2c(C#N)c(=O)n(C)c3ccc(Cl)nc23)CC1` [Example 29, -chloro-1-methyl-4-(4-(2-methyl-4-(trifluoromethoxy)phenoxy)piperidin-1-yl)-2-oxo-1,2-dihydro-1,5-naphthyridine-3-carbonitrile], for which the figures for the IC50 in experiment [1], in experiment [2] and in experiment [4] were 3.8 µM, 240 µM and 10 µM, respectively. Moreover, in experiment [3], the EC50 was found to be 5.9 µM.
Consider `Cn1c(=O)c(C#N)c(N2CCC(Oc3ccc(C(F)(F)F)cc3)CC2)c2nc(Cl)ccc21` [Example 30, 6-chloro-1-methyl-2-oxo-4-(4-(4-(trifluoromethyl)phenoxy)piperidin-1-yl)-1,2-dihydro-1,5-naphthyridine-3-carbonitrile], for which the IC50 is 0.98 µM in experiment [1]; 240 µM in experiment [2] (liposome (LIPGLO) assay); 3.5 µM in experiment [4] (Mus musculus, MC-38). In addition, the half-maximal effective concentration (EC50) in experiment [3] (Homo sapiens) came out at 10 µM.
The like results for `Cn1c(=O)c(C#N)c(N2CCC(Oc3ccc(OC(C)(C)C)cc3)CC2)c2nc(Cl)ccc21` [Example 31, 4-(4-(4-(tert-butoxy)phenoxy)piperidin-1-yl)-6-chloro-1-methyl-2-oxo-1,2-dihydro-1,5-naphthyridine-3-carbonitrile] were, in that order, 0.28 µM, 11 µM, 10 µM and 0.044 µM.
As to `Cn1c(=O)c(C#N)c(N2CCC(Oc3ccccc3OC(F)(F)F)CC2)c2nc(Cl)ccc21` [Example 33, 6-chloro-1-methyl-2-oxo-4-(4-(2-(trifluoromethoxy)phenoxy)piperidin-1-yl)-1,2-dihydro-1,5-naphthyridine-3-carbonitrile], the IC50 in experiment [1] amounted to 2.8 µM; in experiment [2] (liposome (LIPGLO) assay), 240 µM; in experiment [4] (Mus musculus, MC-38), 3.8 µM. Also, in experiment [3] (Homo sapiens), the EC50 came out at 10 µM.
For `Cn1c(=O)c(C#N)c(N2CCC(Oc3cccc(C#N)c3)CC2)c2nc(Cl)ccc21` [Example 34, 6-chloro-4-(4-(3-cyanophenoxy)piperidin-1-yl)-1-methyl-2-oxo-1,2-dihydro-1,5-naphthyridine-3-carbonitrile], in that order: 1.1 µM, 9 µM, 8.5 µM and 4.1 µM.
In the case of `Cn1c(=O)c(C#N)c(N2CCC(Oc3ccc(C#N)c(Cl)c3)CC2)c2nc(Cl)ccc21` [Example 38, 6-chloro-4-(4-(3-chloro-4-cyanophenoxy)piperidin-1-yl)-1-methyl-2-oxo-1,2-dihydro-1,5-naphthyridine-3-carbonitrile], the IC50 in experiment [1] is 1.8 µM; in experiment [2] (liposome (LIPGLO) assay) it was 9 µM; in experiment [4] (Mus musculus, MC-38), 10 µM. In experiment [3] (Homo sapiens), the EC50 worked out at 1.6 µM.
For `COc1cc(OC2CCN(c3c(C#N)c(=O)n(C)c4ccc(Cl)nc34)CC2)ccc1Cl` [Example 39, 6-chloro-4-(4-(4-chloro-3-methoxyphenoxy)piperidin-1-yl)-1-methyl-2-oxo-1,2-dihydro-1,5-naphthyridine-3-carbonitrile], in that order: 0.35 µM, 14 µM, 3.7 µM and 0.13 µM.
`Cc1ccc(OC2CCN(c3c(C#N)c(=O)n(C)c4ccc(Cl)nc34)CC2)cc1Cl` [Example 40, 6-chloro-4-(4-(3-chloro-4-methylphenoxy)piperidin-1-yl)-1-methyl-2-oxo-1,2-dihydro-1,5-naphthyridine-3-carbonitrile]: the IC50 in experiment [1] was 0.74 µM; in experiment [2] (liposome (LIPGLO) assay), 9 µM; in experiment [4] (Mus musculus, MC-38), 10 µM. In addition, the EC50 in experiment [3] (Homo sapiens) was 1.2 µM.
Consider `Cn1c(=O)c(C#N)c(N2CCC(Oc3ccc(OC(F)(F)F)cc3Cl)CC2)c2nc(Cl)ccc21` [Example 41, 6-chloro-4-(4-(2-chloro-4-(trifluoromethoxy)phenoxy)piperidin-1-yl)-1-methyl-2-oxo-1,2-dihydro-1,5-naphthyridine-3-carbonitrile], for which the IC50 in experiment [1] was determined as 1.1 µM; in experiment [2] (liposome (LIPGLO) assay), 23 µM; in experiment [4] (Mus musculus, MC-38) it was 10 µM. Further, the EC50 in experiment [3] (Homo sapiens) turned out to be 0.21 µM.
`Cn1c(=O)c(C#N)c(N2CCC(Oc3ccc(OC(F)(F)F)c(Cl)c3)CC2)c2nc(Cl)ccc21` [Example 42, 6-chloro-4-(4-(3-chloro-4-(trifluoromethoxy)phenoxy)piperidin-1-yl)-1-methyl-2-oxo-1,2-dihydro-1,5-naphthyridine-3-carbonitrile]: the IC50 in experiment [1] came to 5.4 µM; in experiment [2] (liposome (LIPGLO) assay), 240 µM; in experiment [4] (Mus musculus, MC-38) it was 10 µM. For the same compound, in experiment [3] (Homo sapiens), the EC50 was 0.7 µM.
The like results for `Cn1c(=O)c(C#N)c(N2CCC(Oc3ccccc3C#N)CC2)c2nc(Cl)ccc21` [Example 43, 6-chloro-4-(4-(2-cyanophenoxy)piperidin-1-yl)-1-methyl-2-oxo-1,2-dihydro-1,5-naphthyridine-3-carbonitrile] were, in that order, 1.5 µM, 27 µM, 10 µM and 10 µM.
Turning to `Cn1c(=O)c(C#N)c(N2CCC(Oc3ccccc3)CC2)c2nc(Cl)ccc21` [Example 46, 6-chloro-1-methyl-2-oxo-4-(4-phenoxypiperidin-1-yl)-1,2-dihydro-1,5-naphthyridine-3-carbonitrile], the IC50 in experiment [1] came to 0.15 µM; in experiment [2] (liposome (LIPGLO) assay), 27 µM; in experiment [4] (Mus musculus, MC-38) it was 8.5 µM. The EC50 in experiment [3] (Homo sapiens) is 1.2 µM.
For `Cn1c(=O)c(C#N)c(N2CCC(Oc3ccc(OC(F)(F)F)cc3)CC2)c2nc(Br)ccc21` [Example 47, 6-Bromo-1-methyl-2-oxo-4-(4-(4-(trifluoromethoxy)phenoxy)piperidin-1-yl)-1,2-dihydro-1,5-naphthyridine-3-carbonitrile], in that order: 0.45 µM, 240 µM, 0.68 µM and 0.49 µM.
